Measurements: ChEMBL document CHEMBL1201862, “PubChem BioAssay data set” (2004)
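48-hour exposure; five concentrations; linearly interpolated endpoints. GI50 is the concentration that inhibits growth by half.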 Calls of active or inactive are those of the source. Cut-off read from the data, not from the text of the source: active = GI50 up to about 1.1 µM and inactive = higher.

What was measured:
Assay in all cases: NCI tumour cell line growth inhibition, 48 h
[1] = system: OVCAR-3
[2] = system: 786-0
[3] = system: SK-MEL-5
[4] = system: OVCAR-4
[5] = system: HCT-116
[6] = system: HCT-15
[7] = system: M14
[8] = system: MDA-MB-231
[9] = system: UACC-62
[10] = system: K562
[11] = system: SF-268
[12] = system: NCI-H226
[13] = system: SF-539
[14] = system: SK-MEL-2
[15] = system: DU-145
[16] = system: MDA-MB-435
[17] = system: MCF7
[18] = system: HOP-62
[19] = system: KM12
[20] = system: UACC-257
[21] = system: TK-10
[22] = system: SW-620
[23] = system: NCI-H460
[24] = system: PC-3
[25] = system: SR
[26] = system: SK-OV-3
[27] = system: RPMI-8226
[28] = system: NCI-H23
[29] = system: HCC 2998
[30] = system: BT-549
[31] = system: SF-295
[32] = system: COLO 205
[33] = system: ACHN
[34] = system: Malme-3M
[35] = system: T47D
[36] = system: NCI/ADR-RES
[37] = system: U-251
[38] = system: HT-29
[39] = system: LOX IMVI
[40] = system: SNB-19
[41] = system: IGROV-1
[42] = system: UO-31
[43] = system: OVCAR-5
[44] = system: EKVX
[45] = system: A549
[46] = system: CAKI-1
[47] = system: OVCAR-8
[48] = system: SK-MEL-28
[49] = system: MOLT-4
[50] = system: CCRF-CEM
[51] = system: A498
[52] = system: Hs-578T
[53] = system: HL-60
[54] = system: RXF 393
[55] = system: HOP-92
[56] = system: SNB-75
[57] = system: SN12C
[58] = system: MDA-N
[59] = system: NCI-H522

## COCP1(=S)OC(C)CCN1C(C)C (configuration not stated)
[1]
  GI50: > 100 µM (inactive)
[2]
  GI50: > 100 µM (inactive)
[3]
  GI50: > 100 µM (inactive)
[4]
  GI50: > 100 µM (inactive)
[5]
  GI50: > 100 µM (inactive)
[6]
  GI50: > 100 µM
[7]
  GI50: > 100 µM (inactive)
[8]
  GI50: > 100 µM (inactive)
[9]
  GI50: > 100 µM (inactive)
[10]
  GI50: > 100 µM (inactive)
[11]
  GI50: > 100 µM (inactive)
[12]
  GI50: > 100 µM (inactive)
[13]
  GI50: > 100 µM (inactive)
[14]
  GI50: > 100 µM (inactive)
[15]
  GI50: > 100 µM (inactive)
[16]
  GI50: > 100 µM (inactive)
[17]
  GI50: > 100 µM (inactive)
[18]
  GI50: > 100 µM (inactive)
[19]
  GI50: > 100 µM (inactive)
[20]
  GI50: > 100 µM (inactive)
[21]
  GI50: > 100 µM (inactive)
[22]
  GI50: > 100 µM (inactive)
[23]
  GI50: > 100 µM (inactive)
[24]
  GI50: > 100 µM (inactive)
[25]
  GI50: > 100 µM (inactive)
[26]
  GI50: > 100 µM (inactive)
[27]
  GI50: > 100 µM (inactive)
[28]
  GI50: > 100 µM (inactive)
[29]
  GI50: > 100 µM (inactive)
[30]
  GI50: > 100 µM (inactive)
[31]
  GI50: > 100 µM (inactive)
[32]
  GI50: > 100 µM (inactive)
[33]
  GI50: > 100 µM (inactive)
[34]
  GI50: > 100 µM (inactive)
[35]
  GI50: > 100 µM (inactive)
[36]
  GI50: > 100 µM (inactive)
[37]
  GI50: > 100 µM (inactive)
[38]
  GI50: > 100 µM (inactive)
[39]
  GI50: > 100 µM (inactive)
[40]
  GI50: > 100 µM (inactive)
[41]
  GI50: > 100 µM (inactive)
[42]
  GI50: > 100 µM (inactive)
[43]
  GI50: > 100 µM (inactive)
[44]
  GI50: > 100 µM (inactive)
[45]
  GI50: > 100 µM (inactive)
[46]
  GI50: > 100 µM (inactive)
[47]
  GI50: > 100 µM (inactive)

## CC1C2=C(CCCC2=O)N(c2ccc(Cl)cc2)C2=C1C(=O)CCC2
[1]
  GI50: 69.8 µM (inactive)
[2]
  GI50: > 100 µM (inactive)
[3]
  GI50: 40.6 µM (inactive)
[4]
  GI50: 39.1 µM (inactive)
[48]
  GI50: > 100 µM (inactive)
[49]
  GI50: 20.3 µM (inactive)
[6]
  GI50: 70 µM
[7]
  GI50: > 100 µM (inactive)
[9]
  GI50: 67.1 µM (inactive)
[10]
  GI50: 29.9 µM (inactive)
[50]
  GI50: 38.5 µM (inactive)
[11]
  GI50: > 100 µM (inactive)
[12]
  GI50: > 100 µM (inactive)
[13]
  GI50: > 100 µM (inactive)
[17]
  GI50: 57.7 µM (inactive)
[51]
  GI50: > 100 µM (inactive)
[19]
  GI50: > 100 µM (inactive)
[21]
  GI50: 86.7 µM (inactive)
[22]
  GI50: > 100 µM (inactive)
[52]
  GI50: 50.1 µM (inactive)
[53]
  GI50: 31.3 µM (inactive)
[23]
  GI50: 60.5 µM (inactive)
[24]
  GI50: 60 µM (inactive)
[54]
  GI50: 21.6 µM (inactive)
[25]
  GI50: 39.2 µM (inactive)
[26]
  GI50: > 100 µM (inactive)
[27]
  GI50: 67 µM (inactive)
[28]
  GI50: > 100 µM (inactive)
[29]
  GI50: > 100 µM (inactive)
[30]
  GI50: 73.6 µM (inactive)
[55]
  GI50: 42.3 µM (inactive)
[56]
  GI50: 16.3 µM (inactive)
[33]
  GI50: 91.2 µM (inactive)
[36]
  GI50: 71 µM (inactive)
[37]
  GI50: 54.7 µM (inactive)
[38]
  GI50: 45.6 µM (inactive)
[39]
  GI50: 68.5 µM (inactive)
[40]
  GI50: > 100 µM (inactive)
[41]
  GI50: > 100 µM (inactive)
[42]
  GI50: 46.2 µM (inactive)
[43]
  GI50: > 100 µM (inactive)
[44]
  GI50: 57.7 µM (inactive)
[45]
  GI50: 88.5 µM (inactive)
[57]
  GI50: 83 µM (inactive)
[46]
  GI50: > 100 µM (inactive)
[47]
  GI50: > 100 µM (inactive)

## CSc1csc(-c2ccc(-c3ccc(-c4cc(SC)cs4)s3)s2)c1
[1]
  GI50: > 100 µM (inactive)
[2]
  GI50: > 100 µM (inactive)
[3]
  GI50: > 100 µM (inactive)
[4]
  GI50: > 100 µM (inactive)
[5]
  GI50: > 100 µM (inactive)
[48]
  GI50: > 100 µM (inactive)
[49]
  GI50: > 100 µM (inactive)
[6]
  GI50: > 100 µM
[7]
  GI50: > 100 µM (inactive)
[8]
  GI50: > 100 µM (inactive)
[9]
  GI50: > 100 µM (inactive)
[10]
  GI50: > 100 µM (inactive)
[50]
  GI50: > 100 µM (inactive)
[11]
  GI50: > 100 µM (inactive)
[12]
  GI50: > 100 µM (inactive)
[13]
  GI50: > 100 µM (inactive)
[14]
  GI50: > 100 µM (inactive)
[16]
  GI50: > 100 µM (inactive)
[17]
  GI50: > 100 µM (inactive)
[18]
  GI50: > 100 µM (inactive)
[19]
  GI50: > 100 µM (inactive)
[20]
  GI50: > 100 µM (inactive)
[21]
  GI50: > 100 µM (inactive)
[22]
  GI50: > 100 µM (inactive)
[52]
  GI50: > 100 µM (inactive)
[23]
  GI50: > 100 µM (inactive)
[24]
  GI50: > 100 µM (inactive)
[25]
  GI50: > 100 µM (inactive)
[26]
  GI50: > 100 µM (inactive)
[58]
  GI50: > 100 µM (inactive)
[27]
  GI50: > 100 µM (inactive)
[28]
  GI50: > 100 µM (inactive)
[29]
  GI50: > 100 µM (inactive)
[30]
  GI50: > 100 µM (inactive)
[31]
  GI50: > 100 µM (inactive)
[56]
  GI50: > 100 µM (inactive)
[32]
  GI50: > 100 µM (inactive)
[33]
  GI50: > 100 µM (inactive)
[34]
  GI50: > 100 µM (inactive)
[36]
  GI50: > 100 µM (inactive)
[37]
  GI50: > 100 µM (inactive)
[38]
  GI50: > 100 µM (inactive)
[39]
  GI50: > 100 µM (inactive)
[40]
  GI50: > 100 µM (inactive)
[41]
  GI50: > 100 µM (inactive)
[42]
  GI50: > 100 µM (inactive)
[43]
  GI50: > 100 µM (inactive)
[44]
  GI50: > 100 µM (inactive)
[45]
  GI50: > 100 µM (inactive)
[57]
  GI50: > 100 µM (inactive)

## CC(=O)OCC1OC(N2C(=O)NC(=O)C3C=C4CCCCC4=CC32)C(OC(C)=O)C1OC(C)=O (configuration not stated)
[1]
  GI50: > 100 µM (inactive)
[3]
  GI50: > 100 µM (inactive)
[4]
  GI50: > 100 µM (inactive)
[5]
  GI50: > 100 µM (inactive)
[48]
  GI50: > 100 µM (inactive)
[49]
  GI50: > 100 µM (inactive)
[6]
  GI50: > 100 µM
[7]
  GI50: > 100 µM (inactive)
[8]
  GI50: > 100 µM (inactive)
[9]
  GI50: > 100 µM (inactive)
[10]
  GI50: > 100 µM (inactive)
[50]
  GI50: > 100 µM (inactive)
[13]
  GI50: > 100 µM (inactive)
[14]
  GI50: > 100 µM (inactive)
[15]
  GI50: > 100 µM (inactive)
[16]
  GI50: > 100 µM (inactive)
[17]
  GI50: > 100 µM (inactive)
[51]
  GI50: > 100 µM (inactive)
[20]
  GI50: > 100 µM (inactive)
[21]
  GI50: > 100 µM (inactive)
[22]
  GI50: > 100 µM (inactive)
[53]
  GI50: > 100 µM (inactive)
[23]
  GI50: > 100 µM (inactive)
[24]
  GI50: > 100 µM (inactive)
[54]
  GI50: > 100 µM (inactive)
[25]
  GI50: > 100 µM (inactive)
[26]
  GI50: > 100 µM (inactive)
[58]
  GI50: > 100 µM (inactive)
[27]
  GI50: > 100 µM (inactive)
[28]
  GI50: > 100 µM (inactive)
[29]
  GI50: > 100 µM (inactive)
[30]
  GI50: > 100 µM (inactive)
[31]
  GI50: > 100 µM (inactive)
[55]
  GI50: > 100 µM (inactive)
[32]
  GI50: > 100 µM (inactive)
[33]
  GI50: > 100 µM (inactive)
[34]
  GI50: > 100 µM (inactive)
[35]
  GI50: > 100 µM (inactive)
[37]
  GI50: > 100 µM (inactive)
[39]
  GI50: > 100 µM (inactive)
[40]
  GI50: > 100 µM (inactive)
[41]
  GI50: > 100 µM (inactive)
[42]
  GI50: > 100 µM (inactive)
[59]
  GI50: > 100 µM (inactive)
[43]
  GI50: > 100 µM (inactive)
[44]
  GI50: > 100 µM (inactive)
[45]
  GI50: > 100 µM (inactive)
[57]
  GI50: > 100 µM (inactive)
[46]
  GI50: > 100 µM (inactive)
